# In paper PMC10485887, “PET Evaluation of the Novel F-18 Labeled Reversible Radioligand [^18F]GEH200449 for Detection of Monoamine Oxidase-B in the Non-Human Primate Brain” (ACS Chemical Neuroscience, 2023):
# Several values for one entry are separate records, joined by “and”; a condition that tells them apart may be missing. Identical values can stand only once. Like-named read-outs stand apart in the source and are kept apart here.
# How the values were obtained:
# MAO-B [1] = format: in vivo, Macaca fascicularis
# Experimental: Each PET measurement was performed on a separate experimental day. Experiments conducted in the same NHP were separated by at least 6 weeks. Baseline PET measurements were initially undertaken in each of the five NHPs.
# Time curves for regional [^18F]GEH200449 binding at baseline were analyzed by kinetic modeling using 1-TC and 2-TC models,[32] and VT as outcome measures. Akaike information criterion[33] and F statistics were applied to select the preferred model. Regional estimates of VT for [^18F]GEH200449 were also obtained using the Logan linear graphical method[34] with t* fixed at 40 min. The analyses were performed using the kinetic modeling tool in PMOD v. 4.3. Occupancy at [^18F]GEH200449 binding sites was estimated based on regional VT values obtained by the Logan method at baseline and after drug administration according to a graphical procedure described in the literature.[22]
# MAO-B [2] = test system: MAO-B; parameters: method as in PMID 31589885; details: cited from earlier work
structure (smiles),measurement,setting,value
N#Cc1cc(F)cc(-c2nc(-c3ccc(F)cn3)no2)c1 [AZD9272],effect on [^18F]GEH200449 regional radioactivity,"MAO-B [1]; 0.15 mg/kg, 15 min before PET, NHP #3",reduction
same,affinity toward MAO-B,MAO-B [2],high affinity
CN1CC(=O)NC1=NC(=O)Nc1cccc(Cl)c1 [fenobam],effect on [^18F]GEH200449 regional radioactivity,"MAO-B [1]; 1.0 mg/kg, 15 min before PET, NHP #5",reduction
same,affinity toward MAO-B,MAO-B [2],high affinity
"C#CCN[C@@H]1CCc2ccccc21 [rasagiline, N-Propargyl-1R(+)-Aminoindan]",occupancy at MAO-B ([^18F]GEH200449 binding sites),"MAO-B [1]; 0.75 mg/kg IV, 45 min before radioligand, NHP #4, graphical analysis of VT",97% and > 80%
same,"inhibitory effect on [^18F]GEH200449 binding, dose dependency","MAO-B [1]; 0.25 and 0.75 mg/kg pretreatment, NHP #4",more pronounced after the higher dose
same,effect on [^18F]GEH200449 regional radioactivity,MAO-B [1]; pretreatment 45 min before radioligand injection,inhibited
